Experimental data: patent US9023789B2, “Amylin analogs and pharmaceutical compositions thereof” (Novo Nordisk A/S, priority 2012, dated 2015)
Numbered stars: 1 amine (or outer) side, 2 acyl side, 3 side chain; on linkers, the order of the positions; unused ones are H or OH. Bridge positions count the residues as written; N and C are the ends. Side chains are listed from the residue outwards. Peptide text beside a SMILES is read from it. * marks the point of attachment. C20 diacid = O=C(O)CCCCCCCCCCCCCCCCCCC(=O)*; γGlu = O=C(O)[C@H](CCC(=O)[*:2])N[*:1]; AEEA = NCCOCCOCC(=O)O

What was measured:
[1] = biological target: T1, human amylin receptor (membranes from Amylin 3(a)/CRE-luc cells) (Homo sapiens, UniProt O60896+P30988); assay: ASSAY (V) binding to the human amylin receptor (SPA, 125I-rat amylin); details: for IC50: Table 4, read-out: hAmylin-R bind IC50;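 as to all read-outs here: competition binding of cell membranes (35 ng/µL) mixed with SPA beads in 384-well plates at 40 µL total volume, read by scintillation counting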
T1 construct: expressed in transfected cells
T1 sequence (P30988 25-474): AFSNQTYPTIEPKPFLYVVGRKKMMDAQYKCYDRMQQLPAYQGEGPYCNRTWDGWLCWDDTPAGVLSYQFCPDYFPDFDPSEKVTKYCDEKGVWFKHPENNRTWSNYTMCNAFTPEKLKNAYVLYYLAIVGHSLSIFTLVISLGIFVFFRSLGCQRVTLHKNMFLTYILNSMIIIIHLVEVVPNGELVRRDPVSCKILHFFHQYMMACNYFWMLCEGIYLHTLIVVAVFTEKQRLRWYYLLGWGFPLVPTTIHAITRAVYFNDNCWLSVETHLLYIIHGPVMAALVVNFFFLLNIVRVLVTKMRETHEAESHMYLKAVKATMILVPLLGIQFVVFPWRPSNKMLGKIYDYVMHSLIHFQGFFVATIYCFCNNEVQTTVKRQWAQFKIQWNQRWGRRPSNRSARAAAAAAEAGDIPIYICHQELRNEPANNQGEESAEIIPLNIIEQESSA
T1 sequence (O60896 24-148 partner): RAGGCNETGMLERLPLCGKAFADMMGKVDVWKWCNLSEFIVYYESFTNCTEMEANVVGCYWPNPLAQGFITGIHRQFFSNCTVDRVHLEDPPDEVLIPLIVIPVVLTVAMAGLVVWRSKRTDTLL

[2] = biological target: T2, human amylin 3(a) receptor (human calcitonin receptor + RAMP-3) in BHK570 cells (Homo sapiens, UniProt O60896+P30988); assay: ASSAY (II)a functional assay, human amylin receptor (CRE luciferase); assay type: cell-based; details: for EC50: human amylin receptor functional potency, assay (II), read-out: hAmylin-R funct. EC50
T2 construct: expressed in transfected cells
In short: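 Cells were seeded and cultured overnight, then incubated with standard or sample for 3 h at 37° C in serum-containing medium at pH 7.4. The medium was then swapped for PBS, LucLite was added for 30 min at room temperature, and luminescence was recorded. Cells were BHK with CRE-luc and calcitonin receptor, ± RAMP-3.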

[3] = ASSAY (III) ThT fibrillation assay for physical stability; assay type: physicochemical
In short: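 Formulations with 1 μM ThT, pH adjusted as required, incubated at 37 °C with 960 rpm orbital shaking; fluorescence (ex 444/em 485 nm) read every 20 min. Fibrillation reported as mean ThT fluorescence ± SD of 4–8 replicates at time points; polypeptide concentration measured by reverse-phase HPLC before and after, post-centrifugation.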

[4] = Table 5, selectivity, hCTR bind IC50 / hAmylin-R bind IC50
[5] = Table 5a, selectivity, hCTR bind IC50 / hAmylin-R bind IC50
[6] = Table 5b, selectivity, hCTR bind IC50 / hAmylin-R bind IC50
[7] = Table 5c, selectivity, hCTR bind IC50 / hAmylin-R bind IC50
[8] = Table 7, human binding selectivity, included for comparison
[9] = Table 7a (preferred compounds), human binding selectivity, included for comparison
[10] = ratio of human calcitonin receptor binding IC50 to human amylin receptor binding IC50
[11] = hCTR funct. EC50 divided by hAmylin-R funct. EC50
[12] = hCTR funct. EC50 over hAmylin-R funct. EC50
[13] = human functional selectivity: hCTR funct. EC50 / hAmylin-R funct. EC50

Ratio hCT/hAmylin binding [1, 4] | Ratio hCT/hAmylin binding [1, 5] | Ratio hCT/hAmylin binding [1, 6] | Ratio hCT/hAmylin binding [1, 7] | Ratio hCT/hAmylin binding [1, 8] | Ratio hCT/hAmylin binding [1, 9] | Ratio hCT/hAmylin binding [1, 10] | Ratio hCT/hAmylin funct. [2, 11] | Ratio hCT/hAmylin funct. [2, 12] | Ratio hCT/hAmylin funct. [2, 13] | ThT pH 4.0 lag time (h) [3] [h] | IC50 [1] [nM] | EC50 [2] [nM] | SMILES
56.5 | 56.5 | 56.5 | 56.5 | 56.5 | 56.5 | 56.5 | 46.2 | 46.2 | 46.2 | 2 |  |  | CC[C@H](C)[C@H](NC(=O)[C@H](C)NC(=O)CNC(=O)[C@H](Cc1ccccc1)NC(=O)[C@H](CC(N)=O)NC(=O)[C@@H]1CCCN1C(=O)[C@H](CO)NC(=O)[C@H](CO)NC(=O)[C@H](Cc1c[nH]cn1)NC(=O)[C@H](CCCNC(=N)N)NC(=O)[C@H](CC(C)C)NC(=O)[C@H](Cc1ccccc1)NC(=O)[C@H](CC(N)=O)NC(=O)[C@H](C)NC(=O)[C@H](CC(C)C)NC(=O)[C@H](CCCNC(=N)N)NC(=O)[C@H](CCC(N)=O)NC(=O)[C@@H](NC(=O)[C@H](C)NC(=O)[C@@H]1CSSC[C@H](NC(=O)[C@@H](N)CCCCNC(=O)COCCOCCNC(=O)COCCOCCNC(=O)CC[C@H](NC(=O)CCCCCCCCCCCCCCCCCCC(=O)O)C(=O)O)C(=O)N[C@@H](CC(N)=O)C(=O)N[C@@H]([C@@H](C)O)C(=O)N[C@@H](C)C(=O)N[C@@H]([C@@H](C)O)C(=O)N1)[C@@H](C)O)C(=O)N1CCC[C@H]1C(=O)N[C@@H](CO)C(=O)N[C@@H](CO)C(=O)N[C@H](C(=O)N[C@@H](CC(N)=O)C(=O)N[C@H](C(=O)NCC(=O)N[C@@H](CO)C(=O)N[C@@H](CCC(=O)O)C(=O)N[C@H](C(=O)N[C@@H](Cc1ccc(O)cc1)C(N)=O)[C@@H](C)O)C(C)C)[C@@H](C)O [Example 25]
47.5 | 47.5 | 47.5 | 47.5 | 47.5 | 47.5 | 47.5 | 29.9 | 29.9 | 29.9 | 12 | 0.532 | 0.212 | CC[C@H](C)[C@H](NC(=O)[C@H](C)NC(=O)CNC(=O)[C@H](Cc1ccccc1)NC(=O)[C@H](CC(N)=O)NC(=O)[C@@H]1CCCN1C(=O)[C@H](CO)NC(=O)[C@H](CO)NC(=O)[C@H](Cc1c[nH]cn1)NC(=O)[C@H](CCCNC(=N)N)NC(=O)[C@H](CC(C)C)NC(=O)[C@H](Cc1ccccc1)NC(=O)[C@H](CC(N)=O)NC(=O)[C@H](C)NC(=O)[C@H](CC(C)C)NC(=O)[C@H](CCCNC(=N)N)NC(=O)[C@H](CCC(N)=O)NC(=O)[C@@H](NC(=O)[C@H](C)NC(=O)[C@@H]1CSSC[C@H](NC(=O)[C@@H](N)CCCCNC(=O)COCCOCCNC(=O)CC[C@H](NC(=O)CCCCCCCCCCCCCCCCCCC(=O)O)C(=O)O)C(=O)N[C@@H](CC(N)=O)C(=O)N[C@@H]([C@@H](C)O)C(=O)N[C@@H](C)C(=O)N[C@@H]([C@@H](C)O)C(=O)N1)[C@@H](C)O)C(=O)N1CCC[C@H]1C(=O)N[C@@H](CO)C(=O)N[C@@H](CO)C(=O)N[C@H](C(=O)N[C@@H](CC(N)=O)C(=O)N[C@H](C(=O)NCC(=O)N[C@@H](CO)C(=O)N[C@@H](CCC(=O)O)C(=O)N[C@H](C(=O)N[C@@H](Cc1ccc(O)cc1)C(N)=O)[C@@H](C)O)C(C)C)[C@@H](C)O [Example 26] (H-K([AEEA-γGlu-C20 diacid])CNTATCATQRLANFLRHSSPNFGAIPSSTNVGSETY-NH2; disulfide 2-7; N-terminus assumed)
41.3 | 41.3 | 41.3 | 41.3 | 41.3 | 41.3 | 41.3 | 22.6 | 22.6 | 22.6 | 28 |  |  | CC[C@H](C)[C@H](NC(=O)[C@H](C)NC(=O)CNC(=O)[C@H](Cc1ccccc1)NC(=O)[C@H](CC(N)=O)NC(=O)[C@@H]1CCCN1C(=O)[C@H](CO)NC(=O)[C@H](CO)NC(=O)[C@H](Cc1c[nH]cn1)NC(=O)[C@H](CCCNC(=N)N)NC(=O)[C@H](CC(C)C)NC(=O)[C@H](Cc1ccccc1)NC(=O)[C@H](CC(N)=O)NC(=O)[C@H](C)NC(=O)[C@H](CC(C)C)NC(=O)[C@H](CCCNC(=N)N)NC(=O)[C@H](CCC(N)=O)NC(=O)[C@@H](NC(=O)[C@H](C)NC(=O)[C@@H]1CSSC[C@H](NC(=O)[C@@H](N)CCCCNC(=O)CC[C@H](NC(=O)CCCCCCCCCCCCCCCCCCC(=O)O)C(=O)O)C(=O)N[C@@H](CC(N)=O)C(=O)N[C@@H]([C@@H](C)O)C(=O)N[C@@H](C)C(=O)N[C@@H]([C@@H](C)O)C(=O)N1)[C@@H](C)O)C(=O)N1CCC[C@H]1C(=O)N[C@@H](CO)C(=O)N[C@@H](CO)C(=O)N[C@H](C(=O)N[C@@H](CC(N)=O)C(=O)N[C@H](C(=O)NCC(=O)N[C@@H](CO)C(=O)N[C@@H](CCC(=O)O)C(=O)N[C@H](C(=O)N[C@@H](Cc1ccc(O)cc1)C(N)=O)[C@@H](C)O)C(C)C)[C@@H](C)O [Example 27]
20.5 | 20.5 | 20.5 | 20.5 | 20.5 | 20.5 | 20.5 | 9.2 | 9.2 | 9.2 | 40 | 0.61 | 0.22 | CC[C@H](C)[C@H](NC(=O)[C@H](C)NC(=O)CNC(=O)[C@H](Cc1ccccc1)NC(=O)[C@H](CC(N)=O)NC(=O)[C@@H]1CCCN1C(=O)[C@H](CO)NC(=O)[C@H](CO)NC(=O)[C@H](Cc1c[nH]cn1)NC(=O)[C@H](CCCNC(=N)N)NC(=O)[C@H](CC(C)C)NC(=O)[C@H](Cc1ccccc1)NC(=O)[C@H](CC(N)=O)NC(=O)[C@H](C)NC(=O)[C@H](CC(C)C)NC(=O)[C@H](CCCNC(=N)N)NC(=O)[C@H](CCC(N)=O)NC(=O)[C@@H](NC(=O)[C@H](C)NC(=O)[C@@H]1CSSC[C@H](NC(=O)[C@H](CCCCN)NC(=O)CC[C@H](NC(=O)CCCCCCCCCCCCCCCCCCC(=O)O)C(=O)O)C(=O)N[C@@H](CC(N)=O)C(=O)N[C@@H]([C@@H](C)O)C(=O)N[C@@H](C)C(=O)N[C@@H]([C@@H](C)O)C(=O)N1)[C@@H](C)O)C(=O)N1CCC[C@H]1C(=O)N[C@@H](CO)C(=O)N[C@@H](CO)C(=O)N[C@H](C(=O)N1CCC[C@H]1C(=O)N[C@H](C(=O)NCC(=O)N[C@@H](CO)C(=O)N[C@@H](CCC(=O)O)C(=O)N[C@H](C(=O)N[C@@H](Cc1ccc(O)cc1)C(N)=O)[C@@H](C)O)C(C)C)[C@@H](C)O [Example 28] ({C20 diacid-γGlu}-KCNTATCATQRLANFLRHSSPNFGAIPSSTPVGSETY-NH2; disulfide 2-7 (inferred))
23.6 | 23.6 | 23.6 | 23.6 | 23.6 | 23.6 | 23.6 | 12.6 | 12.6 | 12.6 | 16 |  |  | CC[C@H](C)[C@H](NC(=O)[C@H](C)NC(=O)CNC(=O)[C@H](Cc1ccccc1)NC(=O)[C@H](CC(N)=O)NC(=O)[C@@H]1CCCN1C(=O)[C@H](CO)NC(=O)[C@H](CO)NC(=O)[C@H](Cc1c[nH]cn1)NC(=O)[C@H](CCCNC(=N)N)NC(=O)[C@H](CC(C)C)NC(=O)[C@H](Cc1ccccc1)NC(=O)[C@H](Cc1c[nH]cn1)NC(=O)[C@H](C)NC(=O)[C@H](CC(C)C)NC(=O)[C@H](CCCNC(=N)N)NC(=O)[C@H](CCC(N)=O)NC(=O)[C@@H](NC(=O)[C@H](C)NC(=O)[C@@H]1CSSC[C@H](NC(=O)[C@H](CCCCN)NC(=O)CC[C@H](NC(=O)CCCCCCCCCCCCCCCCCCC(=O)O)C(=O)O)C(=O)N[C@@H](CC(N)=O)C(=O)N[C@@H]([C@@H](C)O)C(=O)N[C@@H](C)C(=O)N[C@@H]([C@@H](C)O)C(=O)N1)[C@@H](C)O)C(=O)N1CCC[C@H]1C(=O)N[C@@H](CO)C(=O)N[C@@H](CO)C(=O)N[C@H](C(=O)N[C@@H](CC(N)=O)C(=O)N[C@H](C(=O)NCC(=O)N[C@@H](CO)C(=O)N[C@@H](CCC(=O)O)C(=O)N[C@H](C(=O)N[C@@H](Cc1ccc(O)cc1)C(N)=O)[C@@H](C)O)C(C)C)[C@@H](C)O [Example 30] ({C20 diacid-γGlu}-KCNTATCATQRLAHFLRHSSPNFGAIPSSTNVGSETY-NH2; disulfide 2-7)
